The test system of assay [1] is LNCaP androgen dependent metastatic prostate cancer cells. Kind of assay: Cell viability screen (CCK-8), LNCaP cells. To be noted: Homo sapiens, CCK-8, 96 hours, read-out: IC50, inhibition of cell viability. It counts as cell-based. On the procedure: (§1) FIGS. 2A-2H. Dose response curves. Does response curves for cell lines treated with 6, 10.5, 18.6, 32.4, 57.5 and 100 μM of compound (log) for 96 hours using % cell viability derived from CCK-8 absorbance readings at 450 nm (n=3, mean±SEM). A DMSO equivalent control (n=2±SEM) was also included for each cell line tested: Ea.hy.926 endothelial cells (Endo), LNCaP androgen dependent metastatic prostate cancer cells, TC2-Ras mouse prostate cancer cells, PC-3 androgen independent metastatic prostate cancer cells, and SH-SY5Y neruoblastoma cells. […]
(§2) Cell Viability Screen. […] Cell viability was measured by using the cell counting kit-8 (CCK-8, Dojindo). […] CCK-8 absorbance was measured at 450 nm using a GloMax Multimode Reader (Promega). Readings were performed the day after seeding to normalize for variations in cell seeding and after 96 hours of compound treatment. After each reading, CCK-8 media was removed and replaced with media containing compound as described previously. […] As described previously, an initial baseline CCK-8 reading was performed at 24 hours post seeding to correct for variations in seeding density. First, 450 nm values for each well were subtracted from media only readings to correct for baseline absorbance. Then, the 96 hour readings were normalized to their respective 24 hour readings to control for seeding variation. […]

Assay [2] deals with SH-SY5Y neuroblastoma cells. The assay can be described thus: Cell viability screen (CCK-8), SH-SY5Y cells. It counts as cell-based. The following applies: Homo sapiens, CCK-8, 96 hours, read-out: IC50, inhibition of cell viability. On the procedure: as §1, §2

Here are results for one compound from US11022604B2, “Dock derived compound against laminin receptor (37 LR) and uses thereof” (Purdue Research Foundation, priority 2017, dated 2021).

By IC50 is commonly meant the concentration that gives 50% inhibition. As for `O=C(c1cc(F)cc2c1OCOC2)N1CCN(C2c3ccccc3-c3ccccc32)CC1` [Compound C3, [4-(9h-fluoren-9-yl)piperazino](6-fluoro-4h-1,3-benzodioxin-8-yl)methanone], the results for the IC50 in assay [1] and in assay [2] were 10.3 µM and 18.6 µM, respectively.
